The nature of assay [1]: Cytotoxicity against human Fem-X cells. Type of assay: functional, cell-based. The following applies: for IC50: Homo sapiens, Fem-X, read-out: pIC50 (converted); for pIC50: fem-x.
The next assay deals with HeLa. In words: Cytotoxicity against human HeLa cells. Type of assay: functional, cell-based. The settings on record: for IC50: Homo sapiens, HeLa, read-out: pIC50 (converted); for pIC50: hela.

Take `COC(=O)CC[C@@H](C)[C@H]1CC[C@H]2[C@@H]3CC[C@@H]4C[C@]5(CC[C@]4(C)[C@H]3C[C@H](OC(C)=O)[C@]12C)OO[C@]1(CC[C@@]2(C)[C@H](CC[C@@H]3[C@@H]2C[C@H](OC(C)=O)[C@]2(C)[C@@H]([C@H](C)CCC(=O)OC)CC[C@@H]32)C1)OO5`: the figures for the IC50 (in assay [1]; with HeLa) were 19.5 µM and 20.4 µM, respectively.

Consider `COC(=O)CC[C@@H](C)[C@H]1CC[C@H]2[C@@H]3CC[C@@H]4CC5(CC[C@]4(C)[C@H]3C[C@H](OC(C)=O)[C@]12C)OOC1(CCCCC1)OO5`, for which the IC50 in assay [1] was 52.5 µM; in the assay on HeLa it was 18.6 µM.

With `CCCN(CCC)C(=O)CC[C@@H](C)[C@H]1CC[C@H]2[C@@H]3CC[C@@H]4CC5(CC[C@]4(C)[C@H]3C[C@H](OC(C)=O)[C@]12C)OOC1(CCCCC1)OO5`, the results for the IC50 (in assay [1]; in the assay on HeLa) were 38.9 µM and 28.2 µM, respectively.

`CC(=O)O[C@H]1C[C@H]2[C@@H](CC[C@@H]3CC4(CC[C@@]32C)OOC2(CCCCC2)OO4)[C@@H]2CC[C@H]([C@H](C)CCC(N)=O)[C@@]12C`: the IC50 in assay [1] is 6.03 µM; with HeLa, 5.25 µM.

`CCCNC(=O)CC[C@@H](C)[C@H]1CC[C@H]2[C@@H]3CC[C@@H]4CC5(CC[C@]4(C)[C@H]3C[C@H](OC(C)=O)[C@]12C)OOC1(CCCCC1)OO5`: the values for the IC50 (in assay [1]; in the assay with HeLa) were 13.2 µM and 6.46 µM, respectively.

In the case of `CC(=O)O[C@H]1C[C@H]2[C@@H](CC[C@@H]3CC4(CC[C@@]32C)OOC2(CCCCC2)OO4)[C@@H]2CC[C@H]([C@H](C)CCC(=O)N3CCCCC3)[C@@]12C`, the values for the IC50 (in assay [1]; with HeLa) were 9.12 µM and 7.24 µM, respectively.

As to `CCCNC(=O)C1CCC2(CC1)OOC1(CCCCC1)OO2`, the values for the IC50 (in assay [1]; in the assay on HeLa) were 102 µM and 117 µM, respectively.

For the molecule `CN(C)CCNC(=O)C1CCC2(CC1)OOC1(CCCCC1)OO2`, the IC50 was 120 µM in assay [1] and 135 µM in the assay on HeLa.

Regarding `COC(=O)C1CCC2(CC1)OOC1(CCCCC1)OO2`, the IC50 in assay [1] was 72.4 µM; in the assay on HeLa, 75.9 µM.

For `O=C(O)C1CCC2(CC1)OOC1(CCCCC1)OO2`, the IC50 is 155 µM in assay [1] and 120 µM in the assay on HeLa.

As for `CC(=O)O[C@H]1C[C@H]2[C@@H](CC[C@@H]3CC4(CC[C@@]32C)OOC2(CCCCC2)OO4)[C@@H]2CC[C@H]([C@H](C)CCC(=O)O)[C@@]12C`, the IC50 was 25.1 µM in assay [1] and 6.92 µM in the assay with HeLa.

With `NC(=O)C1CCC2(CC1)OOC1(CCCCC1)OO2`, the results for the IC50 (in assay [1]; in the assay with HeLa) were 120 µM and 115 µM, respectively.

Take `COC(=O)CC[C@@H](C)[C@H]1CC[C@H]2[C@@H]3CC[C@@H]4CC5(CC[C@]4(C)[C@H]3C[C@H](OC(C)=O)[C@]12C)OOC1(CCC(C)CC1)OO5` (stereo in doubt; 13): the results for the pIC50 (in assay [1]; in the assay on HeLa) were 4.13 and 4.96, respectively.

Turning to `COC(=O)CC[C@@H](C)[C@H]1CC[C@H]2[C@@H]3CC[C@@H]4CC5(CC[C@]4(C)[C@H]3C[C@H](OC(C)=O)[C@]12C)OOC1(CCC(C)CC1)OO5` (stereo in doubt; 14), the pIC50 (usually −log10 of the IC50, conventionally taken in molar units) in assay [1] is on record as 4.6; in the assay with HeLa it was 5.3.

(Values after ChEMBL document CHEMBL1250502, “An alignment independent 3D QSAR study of the antiproliferative activity of 1,2,4,5-tetraoxanes” (Eur J Med Chem, 2010).)
